The target of one data set is Bovine cardiac myosin (Bos taurus (Bovine), UniProt Q9BE39). As to the kind of experiment: Cardiac muscle myosin II actin-activated ATPase assay (NADH-coupled). It counts as biochemical. On the set-up: key to Ratio CMMII:NMII Ki/EC50: NMII-sel: no Ki value for cardiac myosin II could be determined; the compounds had no detectable inhibitory properties versus the cardiac myosin II. The settings on record: for Ratio CMMII:NMII Ki/EC50: cardiac myosin II Ki over nonmuscle myosin II EC50; for Ki: 300 nM cardiac myosin, 10 μM actin, 25° C., read-out: CMMII KI. The gist of the method:
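NADH-coupled (PK/LDH) assay at 25° C: 300 nM bovine cardiac myosin, 10 μM rabbit F-actin, 1 mM ATP, 1 mM PEP, 220 μM NADH, MOPS pH 7.0, 0.5% DMSO. NADH fluorescence was followed for 30 min; Ki values came from 16-point triplicate data (top 50 uM) fitted to a quadratic one-to-one binding model.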

Data set [1] can be described thus: Photostability, percentage remaining undegraded under illumination or in the dark. The settings on record: for Photostability 4 hours: percentage remaining undegraded after 4 hours illumination; for Photostability 24 hours: percentage remaining undegraded after 24 hours illumination; for Photostability Dark (24 h): percentage remaining undegraded in the dark.
A further data set has as its target Rabbit skeletal myosin. As to the kind of experiment: Skeletal muscle myosin II actin-activated ATPase assay. It counts as biochemical. The settings on record: 20 nM skeletal muscle myosin II; read-out: SKMMII KI. The gist of the method: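 NADH-coupled (PK/LDH) actin-activated ATPase at 25 °C with 20 nM rabbit skeletal myosin II, 10 μM F-actin, 1 mM ATP, 1 mM PEP, 220 μM NADH in MOPS pH 7.0, MgCl2, EGTA, BSA, DTT, 0.5% DMSO. NADH fluorescence followed 30 min; inhibitory constants from 16-point triplicate curves (top 50 uM), quadratic one-to-one fit.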

Chain of Bovine cardiac myosin (Q9BE39 whole entry): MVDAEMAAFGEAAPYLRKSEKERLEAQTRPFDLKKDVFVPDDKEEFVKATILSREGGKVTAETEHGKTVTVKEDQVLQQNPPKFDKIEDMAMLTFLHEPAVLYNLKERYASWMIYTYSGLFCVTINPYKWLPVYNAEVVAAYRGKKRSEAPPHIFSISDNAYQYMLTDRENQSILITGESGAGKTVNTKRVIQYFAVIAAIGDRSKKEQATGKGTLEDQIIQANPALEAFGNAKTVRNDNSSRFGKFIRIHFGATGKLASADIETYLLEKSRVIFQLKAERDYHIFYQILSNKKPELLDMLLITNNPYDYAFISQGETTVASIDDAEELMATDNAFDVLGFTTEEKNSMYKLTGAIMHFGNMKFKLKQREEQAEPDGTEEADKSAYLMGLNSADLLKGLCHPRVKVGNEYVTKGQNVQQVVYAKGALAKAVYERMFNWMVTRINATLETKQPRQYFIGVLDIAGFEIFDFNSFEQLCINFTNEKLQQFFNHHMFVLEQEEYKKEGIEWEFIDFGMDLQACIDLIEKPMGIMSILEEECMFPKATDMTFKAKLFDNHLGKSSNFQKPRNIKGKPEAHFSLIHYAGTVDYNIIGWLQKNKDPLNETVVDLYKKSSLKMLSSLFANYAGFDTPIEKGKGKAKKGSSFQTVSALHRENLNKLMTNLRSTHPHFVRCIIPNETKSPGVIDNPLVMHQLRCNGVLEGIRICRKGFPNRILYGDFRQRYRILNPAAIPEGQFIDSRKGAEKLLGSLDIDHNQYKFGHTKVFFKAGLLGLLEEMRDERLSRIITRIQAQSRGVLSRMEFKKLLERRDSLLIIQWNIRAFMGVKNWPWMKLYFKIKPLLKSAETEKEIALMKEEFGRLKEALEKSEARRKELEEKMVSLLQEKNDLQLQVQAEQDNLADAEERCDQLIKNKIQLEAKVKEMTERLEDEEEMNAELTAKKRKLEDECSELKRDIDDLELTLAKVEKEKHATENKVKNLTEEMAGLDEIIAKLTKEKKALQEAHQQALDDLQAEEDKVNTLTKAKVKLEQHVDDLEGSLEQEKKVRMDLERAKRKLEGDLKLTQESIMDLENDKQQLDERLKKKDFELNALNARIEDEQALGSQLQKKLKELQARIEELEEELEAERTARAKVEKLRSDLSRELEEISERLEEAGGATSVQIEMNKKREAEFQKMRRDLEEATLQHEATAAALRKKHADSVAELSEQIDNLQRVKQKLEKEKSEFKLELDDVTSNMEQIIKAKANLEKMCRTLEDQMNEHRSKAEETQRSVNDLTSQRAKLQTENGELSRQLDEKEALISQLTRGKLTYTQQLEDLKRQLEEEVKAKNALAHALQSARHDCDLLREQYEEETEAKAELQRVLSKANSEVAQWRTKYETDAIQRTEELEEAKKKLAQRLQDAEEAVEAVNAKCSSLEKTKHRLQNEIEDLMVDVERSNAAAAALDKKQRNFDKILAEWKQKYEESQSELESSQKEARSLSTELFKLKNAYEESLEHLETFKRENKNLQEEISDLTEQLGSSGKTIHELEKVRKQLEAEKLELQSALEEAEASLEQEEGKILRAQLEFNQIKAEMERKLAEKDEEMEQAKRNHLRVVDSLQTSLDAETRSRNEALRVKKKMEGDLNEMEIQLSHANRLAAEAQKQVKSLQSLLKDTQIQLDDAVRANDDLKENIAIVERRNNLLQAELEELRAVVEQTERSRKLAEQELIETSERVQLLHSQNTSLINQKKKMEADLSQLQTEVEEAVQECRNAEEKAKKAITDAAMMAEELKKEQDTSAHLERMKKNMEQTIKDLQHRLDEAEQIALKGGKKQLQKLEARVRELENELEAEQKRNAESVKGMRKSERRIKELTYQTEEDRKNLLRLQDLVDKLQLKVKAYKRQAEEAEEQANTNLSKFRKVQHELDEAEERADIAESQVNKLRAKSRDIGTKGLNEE
Chain of Bovine cardiac myosin (P85100 whole entry partner): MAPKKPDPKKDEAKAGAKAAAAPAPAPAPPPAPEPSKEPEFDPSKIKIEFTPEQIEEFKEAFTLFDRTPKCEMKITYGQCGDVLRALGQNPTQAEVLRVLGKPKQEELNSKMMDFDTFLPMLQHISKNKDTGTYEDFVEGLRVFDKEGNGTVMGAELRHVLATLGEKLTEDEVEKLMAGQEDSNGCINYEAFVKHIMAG
Chain of Bovine cardiac myosin (Q3SZE5 whole entry partner): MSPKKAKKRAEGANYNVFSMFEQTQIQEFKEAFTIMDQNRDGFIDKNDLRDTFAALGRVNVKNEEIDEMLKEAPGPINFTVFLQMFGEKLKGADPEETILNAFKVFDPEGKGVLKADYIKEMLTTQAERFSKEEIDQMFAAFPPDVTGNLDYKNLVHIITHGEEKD

Consider `Cc1cc2c(cc1C)C(=O)[C@]1(O)CCN(c3cccc(Cl)c3)C1=N2` [BPN-0026500], for which the “Ratio CMMII:NMII Ki/EC50” value at Bovine cardiac myosin is given as “NMII-sel”. Also, in data set [1], the “Photostability 4 hours” value worked out at 92.2%, the “Photostability 24 hours” value is recorded as 22.8% and the “Photostability Dark (24 h)” value is reported as >99%. Further, on Rabbit skeletal myosin, the Ki (as a rule, the equilibrium dissociation constant of an inhibitor or competing ligand from its target) came to 23 µM.

With `Cc1cc2c(cc1C)C(=O)[C@]1(O)CCN(c3cnc(C#N)c(C)c3)C1=N2` [BPN-0028760], at Bovine cardiac myosin, the Ki turned out to be 16 µM and the “Ratio CMMII:NMII Ki/EC50” value is recorded as 4.3. In data set [1], the “Photostability 4 hours” value worked out at 87.9%, the “Photostability 24 hours” value is 83% and the “Photostability Dark (24 h)” value was found to be 87.6%. In addition, the inhibition constant Ki at Rabbit skeletal myosin turned out to be 0.94 µM.

Consider `COc1cc(N2CC[C@@]3(O)C(=O)c4cc(C)c(C(F)(F)F)cc4N=C23)ccn1` [BPN-0027037], for which the “Ratio CMMII:NMII Ki/EC50” value on Bovine cardiac myosin is “NMII-sel”. Moreover, in data set [1], the “Photostability 4 hours” value is reported as >99%, the “Photostability 24 hours” value was >99% and the “Photostability Dark (24 h)” value is reported as >99%. Also, on Rabbit skeletal myosin, the Ki worked out at 18 µM.

Regarding `Cc1cc2c(cc1C(F)(F)F)N=C1N(c3ccc(Cl)cc3)CC[C@@]1(O)C2=O` [BPN-0027080], the “Ratio CMMII:NMII Ki/EC50” value on Bovine cardiac myosin is recorded as “NMII-sel”. Moreover, in data set [1], the “Photostability 4 hours” value is 98.1%, the “Photostability 24 hours” value was found to be 88.1% and the “Photostability Dark (24 h)” value is >99%. Further, the Ki at Rabbit skeletal myosin was 4.8 µM.

For `Cc1ccc2c(c1)C(=O)[C@]1(O)CCN(c3cnc(C#N)c(Cl)c3)C1=N2` [BPN-0028646], the “Ratio CMMII:NMII Ki/EC50” value at Bovine cardiac myosin is “NMII-sel”. Further, in data set [1], the “Photostability 4 hours” value is reported as >99%, the “Photostability 24 hours” value turned out to be 97.1% and the “Photostability Dark (24 h)” value amounted to 98.2%. In addition, the Ki at Rabbit skeletal myosin turned out to be 1.3 µM.

For `COc1cccc(N2CC[C@@]3(O)C(=O)c4cc(C)ccc4N=C23)c1` [BPN-0025044], on Bovine cardiac myosin, the inhibition constant Ki came out at 28 µM and the “Ratio CMMII:NMII Ki/EC50” value was found to be 5.4. In data set [1], the “Photostability 4 hours” value amounted to 90.3%, the “Photostability 24 hours” value was 12.1% and the “Photostability Dark (24 h)” value is on record as >99%. Further, at Rabbit skeletal myosin, the Ki was 7 µM.

Take `Cc1cc2c(cc1C)C(=O)[C@]1(O)CCN(c3ccc(C#N)cc3)C1=N2` [BPN-0026499]: on Bovine cardiac myosin, the inhibitory constant (Ki) was 5.7 µM and the “Ratio CMMII:NMII Ki/EC50” value worked out at 12.4. Further, in data set [1], the “Photostability 4 hours” value turned out to be 97.7%, the “Photostability 24 hours” value came out at 84.9% and the “Photostability Dark (24 h)” value was >99%. Moreover, the inhibition constant (Ki) on Rabbit skeletal myosin was 0.18 µM.

Take `O=C1c2cc(Cl)ccc2N=C2N(c3ccc4sccc4c3)CC[C@@]12O` [BPN-0026546]: on Bovine cardiac myosin, the “Ratio CMMII:NMII Ki/EC50” value is reported as “NMII-sel”. Moreover, in data set [1], the “Photostability 4 hours” value came out at 81.2%, the “Photostability 24 hours” value is 12.5% and the “Photostability Dark (24 h)” value was 93.5%. The Ki at Rabbit skeletal myosin was determined as 22 µM.

As to `COc1ccc2cc(N3CC[C@@]4(O)C(=O)c5cc(C)c(C)cc5N=C34)ccc2n1` [BPN-0027250], the “Ratio CMMII:NMII Ki/EC50” value on Bovine cardiac myosin is listed as “NMII-sel”. In data set [1], the “Photostability 4 hours” value came to 45.8%, the “Photostability 24 hours” value amounted to 2.7% and the “Photostability Dark (24 h)” value worked out at 70.1%. The inhibitory constant (Ki) on Rabbit skeletal myosin worked out at 1 µM.

With `O=C1c2cc(C(F)(F)F)ccc2N=C2N(c3ccc(Cl)cc3)CC[C@@]12O` [BPN-0026544], the “Ratio CMMII:NMII Ki/EC50” value on Bovine cardiac myosin is “NMII-sel”. Moreover, in data set [1], the “Photostability 4 hours” value was 51.1%, the “Photostability 24 hours” value worked out at 10.8% and the “Photostability Dark (24 h)” value is given as 93.7%. On Rabbit skeletal myosin, the Ki was found to be 4.8 µM.

As to `Cc1cc2c(cc1F)C(=O)[C@]1(O)CCN(c3ccc(C#N)cc3)C1=N2` [BPN-0026638], at Bovine cardiac myosin, the Ki amounted to 12 µM and the “Ratio CMMII:NMII Ki/EC50” value is on record as 7.1. In data set [1], the “Photostability 4 hours” value is 87.9%, the “Photostability 24 hours” value was 71.9% and the “Photostability Dark (24 h)” value amounted to 91.6%. Also, the Ki on Rabbit skeletal myosin turned out to be 0.37 µM.

Turning to `Cc1cc2cc(N3CC[C@@]4(O)C(=O)c5cc(C)c(C)cc5N=C34)ccc2o1` [BPN-0026852], on Bovine cardiac myosin, the Ki came to 25 µM and the “Ratio CMMII:NMII Ki/EC50” value stood at 9.6. In data set [1], the “Photostability 4 hours” value came out at 62.4%, the “Photostability 24 hours” value came out at 3.8% and the “Photostability Dark (24 h)” value is 85.1%. Moreover, the Ki on Rabbit skeletal myosin came to 5.6 µM.

Turning to `COc1cc(N2CC[C@@]3(O)C(=O)c4cc(C(F)(F)F)ccc4N=C23)ccn1` [BPN-0026533], the “Ratio CMMII:NMII Ki/EC50” value at Bovine cardiac myosin is reported as “NMII-sel”. For the same compound, in data set [1], the “Photostability 4 hours” value was determined as 87.7%, the “Photostability 24 hours” value is 6.4% and the “Photostability Dark (24 h)” value was found to be 91.7%. Also, the inhibitory constant (Ki) at Rabbit skeletal myosin is 60 µM.

For the compound `Cc1ccc2c(c1)C(=O)[C@]1(O)CCN(c3cc4ncccc4s3)C1=N2` [BPN-0027468], on Bovine cardiac myosin, the “Ratio CMMII:NMII Ki/EC50” value is “NMII-sel”. Also, in data set [1], the “Photostability 4 hours” value is listed as 83.3%, the “Photostability 24 hours” value came to 77.5% and the “Photostability Dark (24 h)” value was 98.3%. In addition, on Rabbit skeletal myosin, the Ki stood at 1.2 µM.

On to `Cc1cc(N2CC[C@@]3(O)C(=O)c4cc(C)c(C)cc4N=C23)ccn1` [BPN-0028616], for which, on Bovine cardiac myosin, the Ki came out at 200 µM and the “Ratio CMMII:NMII Ki/EC50” value was 13.3. For the same compound, in data set [1], the “Photostability 4 hours” value was determined as 93.2%, the “Photostability 24 hours” value was 71.0% and the “Photostability Dark (24 h)” value is 89.4%. The Ki at Rabbit skeletal myosin came out at 11 µM.

`N#Cc1ccc(N2CC[C@@]3(O)C(=O)c4c(sc5c4CCCC5)N=C23)cc1` [BPN-0027236]: at Bovine cardiac myosin, the “Ratio CMMII:NMII Ki/EC50” value is reported as “NMII-sel”. In data set [1], the “Photostability 4 hours” value is reported as >99%, the “Photostability 24 hours” value is listed as 84.9% and the “Photostability Dark (24 h)” value is recorded as >99%. Further, the Ki at Rabbit skeletal myosin was 5 µM.

For `Cc1ccc2c(c1)C(=O)[C@]1(O)CCN(c3ccc4c(C)noc4c3)C1=N2` [BPN-0027374], the “Ratio CMMII:NMII Ki/EC50” value at Bovine cardiac myosin is on record as “NMII-sel”. For the same compound, in data set [1], the “Photostability 4 hours” value was found to be 96.9%, the “Photostability 24 hours” value worked out at 86.4% and the “Photostability Dark (24 h)” value is on record as >99%. Moreover, the Ki at Rabbit skeletal myosin worked out at 0.82 µM.

On to `Cc1ccc2c(c1)C(=O)[C@]1(O)CCN(c3ccc4cncn4c3)C1=N2` [BPN-0027406], for which, at Bovine cardiac myosin, the inhibition constant (Ki) was determined as 200 µM and the “Ratio CMMII:NMII Ki/EC50” value was determined as 3.8. In data set [1], the “Photostability 4 hours” value stood at 75.7%, the “Photostability 24 hours” value is reported as 1.6% and the “Photostability Dark (24 h)” value is listed as >99%. The inhibition constant (Ki) at Rabbit skeletal myosin stood at 7.5 µM.

For the compound `Cc1cc2c(cc1C)C(=O)[C@]1(O)CCN(c3ccc4nc(C)c(C)cc4c3)C1=N2` [BPN-0028868], on Bovine cardiac myosin, the Ki stood at 24 µM and the “Ratio CMMII:NMII Ki/EC50” value turned out to be 31.6. In addition, in data set [1], the “Photostability 4 hours” value came out at 46.7%, the “Photostability 24 hours” value is 43.3% and the “Photostability Dark (24 h)” value is 98.9%. Further, on Rabbit skeletal myosin, the Ki was 0.23 µM.

For the compound `Cc1cc2c(cc1C)C(=O)[C@]1(O)CCN(c3ccc4nnsc4c3)C1=N2` [BPN-0028550], at Bovine cardiac myosin, the Ki amounted to 70 µM and the “Ratio CMMII:NMII Ki/EC50” value is given as 7.5. For the same compound, in data set [1], the “Photostability 4 hours” value worked out at 92.7%, the “Photostability 24 hours” value is recorded as 77.6% and the “Photostability Dark (24 h)” value is on record as 89.4%. The inhibitory constant (Ki) at Rabbit skeletal myosin is 9.4 µM.

Turning to `Cc1cc2c(cc1C)C(=O)[C@]1(O)CCN(c3ccc4c(c3)COCCN4)C1=N2` [BPN-0028758], at Bovine cardiac myosin, the inhibition constant (Ki) is 210 µM and the “Ratio CMMII:NMII Ki/EC50” value worked out at 4.1. For the same compound, in data set [1], the “Photostability 4 hours” value turned out to be 90.9%, the “Photostability 24 hours” value stood at 55.3% and the “Photostability Dark (24 h)” value turned out to be 93.3%. Besides, the inhibitory constant (Ki) on Rabbit skeletal myosin is 40 µM.
